In one assay the target is T1, 5HT-transporter (Homo sapiens, UniProt P31645).
T1 construct: Human platelet membranes (Oceanix Biosciences Corporation, Hanover, Md., USA) were thawed; tissue Oceanix Biosciences Corporation, Hanover, Md., USA; host or cells: human platelet membranes
As to the kind of experiment: Binding experiment for the 5HT-transporter ([3H]paroxetine, human platelet membranes). The note with it: [3H]paroxetine 0.5 nM, 60 min at 25° C., read-out: h-5HTT pIC50 (converted). The method, boiled down:
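Competition binding of [3H]paroxetine to human platelet membranes in Tris-HCl 50 mM with 120 mM NaCl and 5 mM KCl; bound radioligand separated by GF/B filtration and counted.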

Assay [1] concerns the target T2, human adrenergic-α2C receptor (Homo sapiens, UniProt P18825).
T2 construct: expressed in transfected cells; host or cells: CHO cells, stably transfected; membrane preparation
T2 sequence (P18825 1-462): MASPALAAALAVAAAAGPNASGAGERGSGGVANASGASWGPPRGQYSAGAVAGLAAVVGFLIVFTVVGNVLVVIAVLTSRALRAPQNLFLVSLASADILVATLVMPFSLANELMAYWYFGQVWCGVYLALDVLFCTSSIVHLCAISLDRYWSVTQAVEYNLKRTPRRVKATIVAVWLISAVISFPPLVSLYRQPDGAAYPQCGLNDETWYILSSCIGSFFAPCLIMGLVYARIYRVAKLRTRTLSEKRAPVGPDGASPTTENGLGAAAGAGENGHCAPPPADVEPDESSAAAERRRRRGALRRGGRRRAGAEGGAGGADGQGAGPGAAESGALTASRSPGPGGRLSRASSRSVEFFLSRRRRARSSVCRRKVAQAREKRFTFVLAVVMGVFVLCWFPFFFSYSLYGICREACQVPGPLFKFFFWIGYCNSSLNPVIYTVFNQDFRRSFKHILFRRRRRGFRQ
Put plainly: Radioligand binding experiment for hα2C-adrenoceptor ([3H]raulwolscine). The note with it: [3H]raulwolscine 1 nM, 60 minutes at 25° C.; read-out: h-α2C pIC50 (converted). The method, boiled down: (§1)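 CHO membranes expressing human α2A or α2C receptors were incubated with 1 nM [^3H]raulwolscine for 60 min at 25° C in glycylglycine 25 mM, pH 8.0, then filtered. Nonspecific binding was defined with 1 μM oxymetazoline for α2A and 1 μM spiroxatrine for α2C. pIC50 came from sigmoidal competition curves.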

Assay [2] addresses T3, human adrenergic-α2A receptor (Homo sapiens, UniProt P08913).
T3 construct: expressed in transfected cells; host or cells: CHO cells, stably transfected; membrane preparation
T3 sequence (P08913 1-465): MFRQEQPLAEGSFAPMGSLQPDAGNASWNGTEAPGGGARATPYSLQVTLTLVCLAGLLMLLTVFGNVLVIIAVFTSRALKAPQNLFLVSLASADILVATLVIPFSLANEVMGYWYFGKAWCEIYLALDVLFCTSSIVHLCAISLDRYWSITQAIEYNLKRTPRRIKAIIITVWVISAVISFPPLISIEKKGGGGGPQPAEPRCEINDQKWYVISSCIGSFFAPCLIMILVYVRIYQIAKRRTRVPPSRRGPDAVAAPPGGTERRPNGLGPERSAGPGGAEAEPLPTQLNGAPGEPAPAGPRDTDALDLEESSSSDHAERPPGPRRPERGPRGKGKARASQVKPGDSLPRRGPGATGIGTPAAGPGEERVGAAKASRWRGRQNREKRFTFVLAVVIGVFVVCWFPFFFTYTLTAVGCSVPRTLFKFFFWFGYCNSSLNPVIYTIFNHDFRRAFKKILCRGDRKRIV
As to the kind of experiment: Radioligand binding experiment for hα2A-adrenergic receptor ([3H]raulwolscine). As to conditions: [3H]raulwolscine 1 nM, 60 minutes at 25° C.; read-out: h-α2A pIC50 (converted). The gist of the method: as §1

T1 sequence (P31645 whole entry): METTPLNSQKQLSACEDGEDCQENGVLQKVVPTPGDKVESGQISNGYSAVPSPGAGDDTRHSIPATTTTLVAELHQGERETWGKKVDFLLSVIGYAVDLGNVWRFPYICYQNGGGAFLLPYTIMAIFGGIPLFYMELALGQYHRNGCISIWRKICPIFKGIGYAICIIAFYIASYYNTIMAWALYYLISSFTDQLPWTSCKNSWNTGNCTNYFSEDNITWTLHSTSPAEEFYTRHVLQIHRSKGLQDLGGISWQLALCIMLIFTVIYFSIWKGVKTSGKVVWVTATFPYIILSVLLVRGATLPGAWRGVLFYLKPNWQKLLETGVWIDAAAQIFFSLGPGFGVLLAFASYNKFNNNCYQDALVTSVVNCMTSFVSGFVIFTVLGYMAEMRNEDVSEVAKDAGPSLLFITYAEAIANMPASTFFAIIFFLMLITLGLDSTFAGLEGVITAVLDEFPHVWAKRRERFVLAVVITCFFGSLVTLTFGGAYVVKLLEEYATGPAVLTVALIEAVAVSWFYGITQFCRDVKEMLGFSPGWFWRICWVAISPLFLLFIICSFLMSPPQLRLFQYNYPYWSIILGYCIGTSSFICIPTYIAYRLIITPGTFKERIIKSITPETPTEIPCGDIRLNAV

Regarding `CCOC(=O)CCCCn1ccnc(NC2CCN(Cc3ccc4ccccc4c3)CC2)c1=O` [3-08], the IC50 on 5HT-transporter was 10 nM; in assay [1], 12.6 nM; in assay [2], 79.4 nM.
Taken in the same sequence, the figures for `O=c1c(NC2CCN(Cc3ccc4ccccc4c3)CC2)nccn1CCOc1ccccc1` [3-09] were 12.6 nM, 100 nM and 316 nM.
Consider `O=c1c(NC2CCN(Cc3ccc4ccccc4c3)CC2)nccn1CCCOc1ccccc1` [3-10], for which the IC50 at 5HT-transporter was 15.8 nM; in assay [1], 50.1 nM; in assay [2], 126 nM.
Taken in the same sequence, the figures for `O=c1c(NC2CCN(Cc3ccc4ccccc4c3)CC2)nccn1CCCOCc1ccccc1` [3-11] were 20 nM, 25.1 nM and 251 nM.
Take `O=c1c(NC2CCN(Cc3ccc4ccccc4c3)CC2)nccn1CCOC1CCCCO1` (stereo not drawn) [3-12]: the IC50 on 5HT-transporter is 79.4 nM; in assay [1] it was 79.4 nM; in assay [2] it was 631 nM.
For `O=c1c(NC2CCN(Cc3ccc4ccccc4c3)CC2)nccn1-c1ccc(COCC2CCCO2)cc1` (stereo not drawn) [3-14], the values for the IC50 (at 5HT-transporter; in assay [1]; in assay [2]) were 15.8 nM, 3.98 nM and 251 nM, respectively.
For `CCOC(CCn1ccnc(NC2CCN(Cc3ccc4ccccc4c3)CC2)c1=O)OC` (stereo not drawn) [4-01] the same measures were 200 nM, 100 nM and 1260 nM.
`CCOC(CCn1ccnc(NC2CCN(Cc3ccc4ccccc4c3)CC2)c1=O)OCC` [4-02]: the IC50 was 251 nM at 5HT-transporter, 79.4 nM in assay [1] and 794 nM in assay [2].
Taken in the same sequence, the figures for `COC(CCn1ccnc(NC2CCN(Cc3ccc4ccccc4c3)CC2)c1=O)OC` [4-03] were 316 nM, 100 nM and 1000 nM.
Take `O=c1c(NC2CCN(Cc3ccc4ccccc4c3)CC2)nccn1CCC1OCCO1` [4-04]: the IC50 at 5HT-transporter is 158 nM; in assay [1], 79.4 nM; in assay [2] it was 501 nM.
As to `O=c1c(NC2CCN(Cc3ccc4ccccc4c3)CC2)nccn1-c1ccc2c(c1)OCCO2` [4-05], the IC50 was 10 nM on 5HT-transporter, 31.6 nM in assay [1] and 20 nM in assay [2].
Take `O=c1[nH]ccnc1NC1CCN(Cc2ccc3ccccc3c2)CC1` [5-01]: the IC50 at 5HT-transporter is 1260 nM; in assay [1], 126 nM; in assay [2] it was 501 nM.
Taken in the same sequence, the figures for `CCCn1ccnc(NC2CCN(Cc3ccc4ccccc4c3)CC2)c1=O` [5-02] were 100 nM, 63.1 nM and 158 nM.
For `CC(=O)Cn1ccnc(NC2CCN(Cc3ccc4ccccc4c3)CC2)c1=O` [5-03] the same measures were 1000 nM, 100 nM and 200 nM.
In the case of `CC(C)(C)C(=O)Cn1ccnc(NC2CCN(Cc3ccc4ccccc4c3)CC2)c1=O` [5-04], the IC50 is 398 nM at 5HT-transporter, 39.8 nM in assay [1] and 200 nM in assay [2].
Turning to `N#CCCn1ccnc(NC2CCN(Cc3ccc4ccccc4c3)CC2)c1=O` [5-05], the IC50 is 316 nM on 5HT-transporter, 200 nM in assay [1] and 398 nM in assay [2].
For `O=c1c(NC2CCN(Cc3ccc4ccccc4c3)CC2)nccn1CCCC(c1ccc(F)cc1)c1ccc(F)cc1` [5-07] the same measures were 158 nM, 158 nM and 316 nM.
Taken in the same sequence, the figures for `O=C(CCn1ccnc(NC2CCN(Cc3ccc4ccccc4c3)CC2)c1=O)c1ccccc1` [5-08] were 15.8 nM, 50.1 nM and 100 nM.
`O=c1c(NC2CCN(Cc3ccc4ccccc4c3)CC2)nccn1Cc1cccc([N+](=O)[O-])c1` [5-09]: the IC50 at 5HT-transporter was 50.1 nM; in assay [1], 79.4 nM; in assay [2], 200 nM.
For `O=Cc1ccc(-n2ccnc(NC3CCN(Cc4ccc5ccccc5c4)CC3)c2=O)cc1` [5-10] the same measures were 100 nM, 63.1 nM and 316 nM.
Taken in the same sequence, the figures for `O=Cc1ccc(-n2ccnc(NC3CCN(Cc4ccc5ccccc5c4)CC3)c2=O)cc1F` [5-11] were 39.8 nM, 63.1 nM and 398 nM.
As for `O=c1c(NC2CCN(Cc3ccc4ccccc4c3)CC2)nccn1Cc1cccc(Br)c1` [5-13], the IC50 at 5HT-transporter was 126 nM; in assay [1] it was 126 nM; in assay [2] it was 200 nM.
As to `O=c1c(NC2CCN(Cc3ccc4ccccc4c3)CC2)nccn1-c1nccs1` [6-01], the IC50 at 5HT-transporter was 20 nM; in assay [1], 63.1 nM; in assay [2], 251 nM.
For `O=c1c(NC2CCN(Cc3ccc4ccccc4c3)CC2)nccn1-c1ccc2[nH]ccc2c1` [6-02] the same measures were 25.1 nM, 31.6 nM and 126 nM.
For `O=c1c(NC2CCN(Cc3ccc4ccccc4c3)CC2)nccn1-c1ccc2cc[nH]c2c1` [6-03] the same measures were 50.1 nM, 39.8 nM and 50.1 nM.
As for `O=c1c(NC2CCN(Cc3ccc4ccccc4c3)CC2)nccn1-c1csc2ccccc12` [6-04], the IC50 at 5HT-transporter was 31.6 nM; in assay [1], 50.1 nM; in assay [2], 251 nM.
In the case of `O=c1c(NC2CCN(Cc3ccc4ccccc4c3)CC2)nccn1-c1cncnc1` [6-08], the IC50 at 5HT-transporter was 200 nM; in assay [1], 200 nM; in assay [2], 631 nM.
As to `O=c1c(NC2CCN(Cc3ccc4ccccc4c3)CC2)nccn1-c1cnc2ccccc2c1` [6-09], the IC50 on 5HT-transporter was 50.1 nM; in assay [1], 126 nM; in assay [2], 200 nM.
In the case of `O=c1c(NC2CCN(Cc3ccc4ccccc4c3)CC2)nccn1Cc1cc2ccccc2cn1` [6-10], the IC50 is 126 nM at 5HT-transporter, 63.1 nM in assay [1] and 251 nM in assay [2].
For `O=c1[nH]ncn1CCCn1ccnc(NC2CCN(Cc3ccc4ccccc4c3)CC2)c1=O` [6-11] the same measures were 126 nM, 100 nM and 794 nM.
`O=c1c(NC2CCN(Cc3ccc4ccccc4c3)CC2)nccn1-c1ccc2c(c1)CN(CCO)CC2` [6-12]: the IC50 on 5HT-transporter was 39.8 nM; in assay [1] it was 5.01 nM; in assay [2], 31.6 nM.
For `CC(=O)N1CCc2ccc(-n3ccnc(NC4CCN(Cc5ccc6ccccc6c5)CC4)c3=O)cc2C1` [6-13] the same measures were 25.1 nM, 10 nM and 126 nM.
For `Cn1ccnc1CN1CCc2ccc(-n3ccnc(NC4CCN(Cc5ccc6ccccc6c5)CC4)c3=O)cc2C1` [6-15] the same measures were 10 nM, 3.98 nM and 100 nM.
For `O=c1c(NC2CCN(Cc3ccc4ccccc4c3)CC2)nccn1-c1ccccn1` [6-16] the same measures were 158 nM, 25.1 nM and 63.1 nM.
As for `O=c1[nH]c(-c2cccc(Br)c2)c(Cl)nc1NC1CCN(Cc2ccc3ccccc3c2)CC1` [7-01], the IC50 was 501 nM at 5HT-transporter, 794 nM in assay [1] and 1580 nM in assay [2].
As for `O=c1[nH]c(-c2cccc(CNCCF)c2)c(Cl)nc1NC1CCN(Cc2ccc3ccccc3c2)CC1` [7-03], the IC50 at 5HT-transporter is 794 nM; in assay [1], 200 nM; in assay [2] it was 794 nM.
As to `O=c1[nH]c(-c2cccc(CNCC3CCCO3)c2)c(Cl)nc1NC1CCN(Cc2ccc3ccccc3c2)CC1` (stereo not drawn) [7-04], the IC50 at 5HT-transporter is 398 nM; in assay [1], 126 nM; in assay [2], 631 nM.
For `O=c1[nH]c(-c2cccc(CN3CCCCC3)c2)c(Cl)nc1NC1CCN(Cc2ccc3ccccc3c2)CC1` [7-05] the same measures were 631 nM, 126 nM and 794 nM.
With `O=c1[nH]c(-c2cccc(CN3CCC(F)CC3)c2)c(Cl)nc1NC1CCN(Cc2ccc3ccccc3c2)CC1` [7-06], the values for the IC50 (at 5HT-transporter; in assay [1]; in assay [2]) were 1000 nM, 251 nM and 1260 nM, respectively.

The values are drawn from patent US20080269251A1, “Substituted Pyrazinone Derivatives as Alpha2C-Adrenoreceptor Antagonists” (priority 2005, published 2008).
